{"source": "patent US20110183848A1", "about": "“Piperazine Compounds With Herbicidal Effect” (BASF SE, priority 2008, published 2011)", "key": {"[1]": {"test_system": "SETIT", "experiment": "greenhouse test, post-emergence treatment", "format": "in vivo, Setaria italica", "conditions": "application rate 1.0 kg/ha, scale 0 to 100", "description": "(§1) The culture containers used were plastic flowerpots containing loamy sand with approximately 5.8% of humus as the substrate. The seeds of the test plants were sown separately for each species.\n(§2) For the post-emergence treatment, the test plants were first grown to a height of 3 to 15 cm, depending on the plant habit, and then treated with the active compounds which had been suspended or emulsified in water. For this purpose, the test plants were either sown directly and grown in the same containers, or they were first grown separately as seedlings and transplanted into the test containers a few days prior to treatment.\n(§3) Depending on the species, the plants were kept at 10-25° C. or 20-35° C. The test period extended over 2 to 4 weeks. During this time, the plants were tended, and their response to the individual treatments was evaluated.\n(§4) Evaluation was carried out using a scale from 0 to 100. 100 means no emergence of the plants, or complete destruction of at least the aerial moieties, and 0 means no damage, or normal course of growth. A good herbicidal activity is given at values of at least 70 and a very good herbicidal activity is given at values of at least 85.\n(§5) The plants used in the greenhouse experiments belonged to the following species: […]"}, "[2]": {"test_system": "ECHCG", "experiment": "greenhouse test, post-emergence treatment", "format": "in vivo, Echinochloa crus-galli", "conditions": "application rate 1.0 kg/ha, scale 0 to 100", "description": "as §1, §2, §3, §4, §5"}, "[3]": {"test_system": "CHEAL", "experiment": "greenhouse test, post-emergence treatment", "format": "in vivo, Chenopodium album", "conditions": "application rate 0.5 kg/ha, scale 0 to 100", "description": "as §1, §2, §3, §4, §5"}, "[4]": {"test_system": "SETFA", "experiment": "greenhouse test, post-emergence treatment", "format": "in vivo, Setaria faberi", "conditions": "application rate 1.0 kg/ha, scale 0 to 100", "description": "as §1, §2, §3, §4, §5"}, "[5]": {"test_system": "LOLMU", "experiment": "active compound combinations, pre-emergence greenhouse test (Colby synergy)", "format": "in vivo, Lolium multiflorum", "description": "as §1\n(§6) For the pre-emergence treatment, the active compounds, which had been suspended or emulsified in water, were applied directly after sowing by means of finely distributing nozzles. The containers were irrigated gently to promote germination and growth and subsequently covered with transparent plastic hoods until the plants had rooted. This cover caused uniform germination of the test plants, unless this has been impaired by the active compounds.\n(§7) The respective stated components A and B were formulated as a 5% by weight strength or 10% by weight strength emulsion concentrate, or a commercial formulation of component B was used, and, with addition of the amount of solvent system, introduced into the spray liquor used for applying the active compound. In the examples, the solvent used was water.\n(§8) The test period extended over 20 or 21 days. During this time, the plants were tended, and their reactions to the treatments with the active compounds were monitored.\n(§9) In the examples below, using the method of S. R. Colby (1967) “Calculating synergistic and antagonistic responses of herbicide combinations”, Weeds 15, p. 22ff., the value E, which is expected when the activity of the individual active compounds is only additive, was calculated.\n(§10) If the value determined experimentally is higher than the value E calculated according to Colby, a synergistic effect is present.\n(§11) Here, a.s.=active substance, based on 100% active compound. In the use examples 15 and 16, the values E calculated according to Colby are stated in brackets) ( ).\n(§12) What was evaluated was the damage by the chemical compositions using a scale of from 0 to 100%, in comparison to the untreated control plants. 0 means no damage, and 100 means complete destruction of the plants."}, "[6]": {"test_system": "SETFA", "experiment": "active compound combinations, pre-emergence greenhouse test (Colby synergy)", "format": "in vivo, Setaria faberi", "description": "as §1, §6, §7, §8, §9, §10, §11, §12"}, "[7]": {"test_system": "ALOMY", "experiment": "active compound combinations, pre-emergence greenhouse test (Colby synergy)", "format": "in vivo, Alopecurus myosuroides", "description": "as §1, §6, §7, §8, §9, §10, §11, §12"}, "[8]": {"conditions": "use example 14, application rate a.s. 31.25 g/ha"}, "[9]": {"conditions": "use example 14, application rate a.s. 62.5 g/ha"}, "[10]": {"conditions": "use example 14, application rate a.s. 125 g/ha"}, "[11]": {"conditions": "use example 14, application rate a.s. 250 g/ha"}, "[12]": {"conditions": "use example 14, application rate a.s. 3.12 g/ha"}, "[13]": {"conditions": "use example 14, application rate a.s. 12.5 g/ha"}, "[14]": {"conditions": "use example 14, application rate a.s. 25 g/ha"}}, "data": [{"smiles": "C=CCCN1C(=O)C(=Cc2ccccc2C#N)N(C)C(=O)C1(C)Cc1ccccc1", "note": "(stereo not drawn) [I-19]", "values": [{"measurement": "herbicidal activity against SETIT", "setting": "[1]", "value": "very good (a very good herbicidal activity is given at values of at least 85)"}, {"measurement": "herbicidal activity against ECHCG", "setting": "[2]", "value": "very good (a very good herbicidal activity is given at values of at least 85)"}]}, {"smiles": "CCCCCN1C(=O)C(=Cc2ccccc2C#N)N(C)C(=O)C1(C)Cc1ccccc1", "note": "(stereo not drawn) [I-21]", "values": [{"measurement": "herbicidal activity against CHEAL", "setting": "[3]", "value": "very good (a very good herbicidal activity is given at values of at least 85)"}]}, {"smiles": "CN1C(=O)C(C)(Cc2ccccc2)N(CC2CC2)C(=O)C1=Cc1ccccc1C#N", "note": "(stereo not drawn) [I-25]", "values": [{"measurement": "herbicidal activity against SETFA", "setting": "[4]", "value": "very good (a very good herbicidal activity is given at values of at least 85)"}]}, {"smiles": "CCOc1ncccc1CC1C(=O)N(COC)C(C)(Cc2ccccc2)C(=O)N1C", "note": "(stereo not drawn) [II-26]", "values": [{"measurement": "Herbicidal activity in % after 20 days against LOLMU", "setting": "[5]; [8]", "value": 0, "unit": "%"}, {"measurement": "Herbicidal activity in % after 20 days against LOLMU", "setting": "[5]; [9]", "value": 15, "unit": "%"}, {"measurement": "Herbicidal activity in % after 20 days against LOLMU", "setting": "[5]; [10]", "value": 98, "unit": "%"}, {"measurement": "Herbicidal activity in % after 20 days against SETFA", "setting": "[6]; [8]", "value": 10, "unit": "%"}, {"measurement": "Herbicidal activity in % after 20 days against SETFA", "setting": "[6]; [10]", "value": 75, "unit": "%"}, {"measurement": "Herbicidal activity in % after 20 days against SETFA", "setting": "[6]; [11]", "value": 100, "unit": "%"}, {"measurement": "Herbicidal activity in % after 20 days against ALOMY", "setting": "[7]; [8]", "value": 30, "unit": "%"}, {"measurement": "Herbicidal activity in % after 20 days against ALOMY", "setting": "[7]; [9]", "value": 60, "unit": "%"}, {"measurement": "Herbicidal activity in % after 20 days against ALOMY", "setting": "[7]; [10]", "value": 90, "unit": "%"}, {"measurement": "Herbicidal activity in % after 20 days against ALOMY", "setting": "[7]; [11]", "value": 95, "unit": "%"}]}, {"smiles": "CCNc1nc(Cl)nc(NC(C)C)n1", "note": "[atrazine]", "values": [{"measurement": "Herbicidal activity in % after 20 days against LOLMU", "setting": "[5]; application rate a.s. 125 g/ha", "value": 0, "unit": "%"}, {"measurement": "Herbicidal activity in % after 20 days against LOLMU", "setting": "[5]; application rate a.s. 250 g/ha", "value": 20, "unit": "%"}, {"measurement": "Herbicidal activity in % after 20 days against ALOMY", "setting": "[7]; application rate a.s. 125 g/ha", "value": 35, "unit": "%"}, {"measurement": "Herbicidal activity in % after 20 days against ALOMY", "setting": "[7]; application rate a.s. 250 g/ha", "value": 65, "unit": "%"}]}, {"smiles": "Cn1nc(C(F)(F)F)c(CS(=O)(=O)C2=NOC(C)(C)C2)c1OC(F)F", "note": "[pyroxasulfone]", "values": [{"measurement": "Herbicidal activity in % after 20 days against LOLMU", "setting": "[5]; [12]", "value": 15, "unit": "%"}, {"measurement": "Herbicidal activity in % after 20 days against LOLMU", "setting": "[5]; [13]", "value": 75, "unit": "%"}, {"measurement": "Herbicidal activity in % after 20 days against LOLMU", "setting": "[5]; [14]", "value": 80, "unit": "%"}, {"measurement": "Herbicidal activity in % after 20 days against SETFA", "setting": "[6]; [12]", "value": 0, "unit": "%"}, {"measurement": "Herbicidal activity in % after 20 days against SETFA", "setting": "[6]; use example 14, application rate a.s. 6.25 g/ha", "value": 25, "unit": "%"}, {"measurement": "Herbicidal activity in % after 20 days against SETFA", "setting": "[6]; [14]", "value": 95, "unit": "%"}, {"measurement": "Herbicidal activity in % after 20 days against ALOMY", "setting": "[7]; [12]", "value": 25, "unit": "%"}, {"measurement": "Herbicidal activity in % after 20 days against ALOMY", "setting": "[7]; [13]", "value": 95, "unit": "%"}, {"measurement": "Herbicidal activity in % after 20 days against ALOMY", "setting": "[7]; [14]", "value": 95, "unit": "%"}]}]}
